Measured values reported in US20130338130A1 (priority 2009, published 2013).
Several values for one entry are separate records, joined by “and”; a condition that tells them apart may be missing. Equal values may be shown once. Read-outs that look alike come from different tables or passages of the source.

Experiments:
[1] = tested on: ATCC strain 43300 Staphylococcus aureus; conditions: 24 hours; for average log reduction in cfu/ml: MSM (% in label) with antibiotic (12, 30, 60 μg/ml oxacillin or methicillin)
Protocol: All concentrations were plated out to the 10^−7 dilutions to ascertain cfu/ml.
ATCC strain 43300 Staphylococcus aureus was streaked out for isolations and 25 clones were picked and diluted to a McFarland standard of one. The estimated value was then taken to inoculate tubes containing growth media and 12, 30 or 60 μg/ml methicillin or oxacillin with around 10^−7 cfu/tube.
Material was calculated on a 10 ml volume. Sterile oxacillin or methicillin was added to each experimental condition to a final concentration of 12, 30 or 60 μg/ml antibiotic.
All tubes were then inoculated with a dilution of the selected ATCC strain 43300 Staphylococcus aureus clone giving a final level of colony forming units of 9.4×10^7/ml (log=7.97). The tubes were incubated at 25° C. and mixed periodically. […] Plating was done at 24 hours. Each condition was plated by diluting 1 ml of growth material into 9 ml of MLB diluent broth. This mixture was serial diluted down to 10^−7, and 1 ml placed in a sterile petri dish at each dilution point. 20 mls of TSA was added to each dilution, swirled and allowed to solidify. All dilutions were placed in a 35° C. incubator for 24 hours. Bacterial colonies on each plate were counted and colony counts changed into log format. A positive and negative control was ascertained.

[2] = tested on: ATCC strain 43300 Staphylococcus aureus; conditions: for survival (cfu/ml): triplicate platings
Protocol: Additional antibiotic was added every 24 hours. The growth periods tested were 24 (FIG. 5), 48, 72, 96 and 120 hours.
USP<51> Antimicrobial Effectiveness protocol was used as the template experimental paradigm. […] All concentrations were plated out to the 10^−7 dilutions to ascertain cfu/ml. […] Additional antibiotic was added at the initial concentration every 24 hours.
ATCC strain 43300 Staphylococcus aureus was streaked out for isolations. An isolated colony was chosen, streaked again and incubated. Isolate was chosen and then diluted to a McFarland standard of one. The estimated value was then taken to inoculate tubes containing growth media and 12, 30 or 60 μg/ml methicillin with approximately 10^5 cfu/ml. These tubes were incubated and plated for counting cfu.
Material was calculated on a 10 ml volume. Sterile methicillin was added to each experimental condition to a final concentration of 12, 30 or 60 μg/ml antibiotic. Lactose Broth positive controls both with and without the 12 μg/ml, 30 μg/ml, 60 μg/ml antibiotic were inoculated with MRSA. […] Tubes were set up in singlet, but plated in triplicate, as described below.
All tubes were then inoculated with a dilution of the selected ATCC strain 43300 Staphylococcus aureus clone giving a final level of colony forming units of 1.49×10^5/ml (log=5.17). The tubes were incubated at 25° C. and mixed periodically. Antibiotic was re-inoculated every 24 hours at the initial concentration to maintain pressure on the organism. Plating was done at 24, 48, 72, and 120 hours. Each condition was plated by diluting 1 ml of growth material into 9 ml of MLB diluent broth. […] This mixture was serial diluted down to 10^−7 with 1 ml placed in triplicate in a sterile petri dish at each dilution point. 20 mls of TSA was added to each dilution, swirled and allowed to solidify. All dilutions were placed in a 35° C. incubator for 24 to 72 hours. Bacterial colonies on each plate were counted and the average taken then changed into log format. […] Graphs were recorded as log of 5.2 for TNTC to show comparison among the other data points.
The tubes were spun down at 5000 rpm for 10 minutes. The supernatant was then decanted into 90 mls of Mueller-Hinton broth with 6 μg/ml methicillin. This is for enrichment and the recovery of any MRSA cells that may be present wether healthy or stressed. The pellet had 10 mls Mueller-Hinton broth with 6 μg/ml methicillin added to it to recover any cells that may be present. Both vessels were incubated at 35° C. for 48 hours and plated each 24 hours. Each vessel was plated at 10 dilutions to obtain a 1 cfu detection limit. Since all vessels were at a 1/10 dilution in the enrichment solution plating each vessel in this manner gave us a detection limit of 1 cfu/ml. […] This time point for graphing purposes will be reported as 0 logs.

CS(C)(=O)=O [MSM, Methylsulfonylmethane]
survival (Log cfu/ml) ([1]; 12 μg/ml oxacillin + MSM (% in label), listed as 13% MSM): 4.9 Log cfu/ml
survival (Log cfu/ml) ([1]; 12 μg/ml oxacillin + MSM (% in label), listed as 14% MSM): 4.88 Log cfu/ml
survival (Log cfu/ml) ([1]; 30 μg/ml methicillin + MSM (% in label), listed as 9% MSM): 5.07 Log cfu/ml
survival (Log cfu/ml) ([1]; 30 μg/ml methicillin + MSM (% in label), listed as 10% MSM): 4.8 Log cfu/ml
survival (Log cfu/ml) ([1]; 30 μg/ml methicillin + MSM (% in label), listed as 11% MSM): 4.8 Log cfu/ml
survival (Log cfu/ml) ([1]; 30 μg/ml methicillin + MSM (% in label), listed as 12% MSM): 4.7 Log cfu/ml
survival (Log cfu/ml) ([1]; 30 μg/ml methicillin + MSM (% in label), listed as 13% MSM): 4.7 Log cfu/ml
survival (Log cfu/ml) ([1]; 30 μg/ml methicillin + MSM (% in label), listed as 14% MSM): 4.6 Log cfu/ml
survival (Log cfu/ml) ([1]; 30 μg/ml methicillin + MSM (% in label), listed as 15% MSM): 4.54 Log cfu/ml
survival (Log cfu/ml) ([1]; 30 μg/ml methicillin + MSM (% in label), listed as 16% MSM): 4.47 Log cfu/ml
survival (Log cfu/ml) ([1]; 30 μg/ml oxacillin + MSM (% in label), listed as 9% MSM): 5.02 Log cfu/ml
survival (Log cfu/ml) ([1]; 30 μg/ml oxacillin + MSM (% in label), listed as 10% MSM): 4.99 Log cfu/ml
survival (Log cfu/ml) ([1]; 30 μg/ml oxacillin + MSM (% in label), listed as 11% MSM): 4.94 Log cfu/ml
survival (Log cfu/ml) ([1]; 30 μg/ml oxacillin + MSM (% in label), listed as 12% MSM): 4.87 Log cfu/ml
survival (Log cfu/ml) ([1]; 30 μg/ml oxacillin + MSM (% in label), listed as 13% MSM): 4.9 Log cfu/ml
survival (Log cfu/ml) ([1]; 30 μg/ml oxacillin + MSM (% in label), listed as 14% MSM): 4.82 Log cfu/ml
survival (Log cfu/ml) ([1]; 30 μg/ml oxacillin + MSM (% in label), listed as 15% MSM): 4.74 Log cfu/ml
survival (Log cfu/ml) ([1]; 30 μg/ml oxacillin + MSM (% in label), listed as 16% MSM): 4.59 Log cfu/ml
average log reduction in cfu/ml ([1]; listed as 5% MSM): 2.2 log
average log reduction in cfu/ml ([1]; listed as 16% MSM): 3.3 log
colony numbers ([1]; MSM without antibiotic control condition): greater colony numbers than what was initially inoculated
survival (cfu/ml) ([2]; 12 μg/ml methicillin (re-added every 24 hours) + MSM (% in label), 24 hours, inoculum 1.49×10^5/ml, listed as 5% MSM): 7.8 × 10^2 cfu/ml and 8.0 × 10^2 cfu/ml and 8.2 × 10^2 cfu/ml
survival (cfu/ml) ([2]; 12 μg/ml methicillin (re-added every 24 hours) + MSM (% in label), 24 hours, inoculum 1.49×10^5/ml, listed as 6% MSM): 4.0 × 10^2 cfu/ml and 4.4 × 10^2 cfu/ml and 4.5 × 10^2 cfu/ml
survival (cfu/ml) ([2]; 12 μg/ml methicillin (re-added every 24 hours) + MSM (% in label), 24 hours, inoculum 1.49×10^5/ml, listed as 7% MSM): 4.4 × 10^2 cfu/ml and 5.0 × 10^2 cfu/ml
survival (cfu/ml) ([2]; 12 μg/ml methicillin (re-added every 24 hours) + MSM (% in label), 24 hours, inoculum 1.49×10^5/ml, listed as 8% MSM): 9.6 × 10^2 cfu/ml and 9.5 × 10^2 cfu/ml and 9.3 × 10^2 cfu/ml
survival (cfu/ml) ([2]; 12 μg/ml methicillin (re-added every 24 hours) + MSM (% in label), 24 hours, inoculum 1.49×10^5/ml, listed as 9% MSM): 9.0 × 10^2 cfu/ml and 9.4 × 10^2 cfu/ml and 9.2 × 10^2 cfu/ml
survival (cfu/ml) ([2]; 12 μg/ml methicillin (re-added every 24 hours) + MSM (% in label), 24 hours, inoculum 1.49×10^5/ml, listed as 10% MSM): 1.4 × 10^3 cfu/ml
survival (cfu/ml) ([2]; 12 μg/ml methicillin (re-added every 24 hours) + MSM (% in label), 24 hours, inoculum 1.49×10^5/ml, listed as 11% MSM): 2.2 × 10^3 cfu/ml and 2.3 × 10^3 cfu/ml
survival (cfu/ml) ([2]; 12 μg/ml methicillin (re-added every 24 hours) + MSM (% in label), 24 hours, inoculum 1.49×10^5/ml, listed as 12% MSM): 2.9 × 10^3 cfu/ml and 3.0 × 10^3 cfu/ml and 2.8 × 10^3 cfu/ml
survival (cfu/ml) ([2]; 12 μg/ml methicillin (re-added every 24 hours) + MSM (% in label), 24 hours, inoculum 1.49×10^5/ml, listed as 13% MSM): 3.3 × 10^3 cfu/ml and 3.5 × 10^3 cfu/ml and 3.4 × 10^3 cfu/ml
survival (cfu/ml) ([2]; 12 μg/ml methicillin (re-added every 24 hours) + MSM (% in label), 24 hours, inoculum 1.49×10^5/ml, listed as 14% MSM): 8.8 × 10^3 cfu/ml and 8.5 × 10^3 cfu/ml and 8.2 × 10^3 cfu/ml
survival (cfu/ml) ([2]; 12 μg/ml methicillin (re-added every 24 hours) + MSM (% in label), 24 hours, inoculum 1.49×10^5/ml, listed as 15% MSM): 6.4 × 10^3 cfu/ml and 6.6 × 10^3 cfu/ml and 6.5 × 10^3 cfu/ml
survival (cfu/ml) ([2]; 12 μg/ml methicillin (re-added every 24 hours) + MSM (% in label), 24 hours, inoculum 1.49×10^5/ml, listed as 16% MSM): 1.01 × 10^3 cfu/ml and 1.03 × 10^3 cfu/ml and 1.04 × 10^3 cfu/ml
log reduction ([2]; 12 μg/ml methicillin, 24 hours): 2.2 log
log reduction in colony count ([2]; 12 μg/ml methicillin, 48 hours): 4.1 log
recovery after enrichment in Mueller-Hinton broth ([2]; 12 μg/ml methicillin, 72 hours, detection limit 1 cfu/ml): true total kill
colony count ([2]; 12 μg/ml methicillin, 96 hours): TNTC
recovery after enrichment in Mueller-Hinton broth ([2]; 12 μg/ml methicillin, 96 hours, detection limit 1 cfu/ml): true total kill
colony count ([2]; 12 μg/ml methicillin, 120 hours): TNTC
average log reduction in colony count ([2]; 12 μg/ml methicillin, all MSM concentrations, 24 hours): 1.5 logs
survival (cfu/ml) ([2]; 30 μg/ml methicillin + MSM (% in label), 24 hours, listed as 5% MSM): 3.8 × 10^2 cfu/ml and 4.1 × 10^2 cfu/ml and 4.0 × 10^2 cfu/ml
survival (cfu/ml) ([2]; 30 μg/ml methicillin + MSM (% in label), 24 hours, listed as 6% MSM): 2.2 × 10^2 cfu/ml and 2.5 × 10^2 cfu/ml
survival (cfu/ml) ([2]; 30 μg/ml methicillin + MSM (% in label), 24 hours, listed as 7% MSM): 3.4 × 10^2 cfu/ml and 3.5 × 10^2 cfu/ml and 3.3 × 10^2 cfu/ml
survival (cfu/ml) ([2]; 30 μg/ml methicillin + MSM (% in label), 24 hours, listed as 8% MSM): 9.4 × 10^2 cfu/ml and 9.6 × 10^2 cfu/ml
survival (cfu/ml) ([2]; 30 μg/ml methicillin + MSM (% in label), 24 hours, listed as 9% MSM): 1.1 × 10^3 cfu/ml and 1.3 × 10^3 cfu/ml and 1.2 × 10^3 cfu/ml
survival (cfu/ml) ([2]; 30 μg/ml methicillin + MSM (% in label), 24 hours, listed as 10% MSM): 1.2 × 10^3 cfu/ml and 1.3 × 10^3 cfu/ml and 1.1 × 10^3 cfu/ml
survival (cfu/ml) ([2]; 30 μg/ml methicillin + MSM (% in label), 24 hours, listed as 11% MSM): 3.3 × 10^3 cfu/ml and 2.8 × 10^3 cfu/ml and 3.1 × 10^3 cfu/ml
survival (cfu/ml) ([2]; 30 μg/ml methicillin + MSM (% in label), 24 hours, listed as 12% MSM): 3.3 × 10^3 cfu/ml
survival (cfu/ml) ([2]; 30 μg/ml methicillin + MSM (% in label), 24 hours, listed as 13% MSM): 6.5 × 10^3 cfu/ml and 6.4 × 10^3 cfu/ml
survival (cfu/ml) ([2]; 30 μg/ml methicillin + MSM (% in label), 24 hours, listed as 14% MSM): 6.3 × 10^3 cfu/ml and 6.7 × 10^3 cfu/ml and 6.9 × 10^3 cfu/ml
survival (cfu/ml) ([2]; 30 μg/ml methicillin + MSM (% in label), 24 hours, listed as 15% MSM): 7.8 × 10^3 cfu/ml and 7.6 × 10^3 cfu/ml and 8.0 × 10^3 cfu/ml
survival (cfu/ml) ([2]; 30 μg/ml methicillin + MSM (% in label), 24 hours, listed as 16% MSM): 9.6 × 10^3 cfu/ml and 9.8 × 10^3 cfu/ml and 9.7 × 10^3 cfu/ml
log reduction in colony count ([2]; 30 μg/ml methicillin, 24 hours): 2.8 log
recovery after enrichment in Mueller-Hinton broth ([2]; 30 μg/ml methicillin, 120 hours, detection limit 1 cfu): true total kill
average log reduction ([2]; 30 μg/ml methicillin, lower end of MSM concentrations, 24 hours): 3 log
survival (cfu/ml) ([2]; 60 μg/ml methicillin + MSM (% in label), 24 hours, listed as 5% MSM): 8.3 × 10^2 cfu/ml and 8.1 × 10^2 cfu/ml
survival (cfu/ml) ([2]; 60 μg/ml methicillin + MSM (% in label), 24 hours, listed as 6% MSM): 4.2 × 10^2 cfu/ml and 4.8 × 10^2 cfu/ml
survival (cfu/ml) ([2]; 60 μg/ml methicillin + MSM (% in label), 24 hours, listed as 7% MSM): 6.1 × 10^2 cfu/ml and 6.3 × 10^2 cfu/ml and 6.2 × 10^2 cfu/ml
survival (cfu/ml) ([2]; 60 μg/ml methicillin + MSM (% in label), 24 hours, listed as 8% MSM): 9.4 × 10^2 cfu/ml and 9.8 × 10^2 cfu/ml and 9.7 × 10^2 cfu/ml
survival (cfu/ml) ([2]; 60 μg/ml methicillin + MSM (% in label), 24 hours, listed as 9% MSM): 2.0 × 10^3 cfu/ml and 1.6 × 10^3 cfu/ml and 1.8 × 10^3 cfu/ml
survival (cfu/ml) ([2]; 60 μg/ml methicillin + MSM (% in label), 24 hours, listed as 10% MSM): 2.2 × 10^3 cfu/ml and 2.1 × 10^3 cfu/ml and 2.0 × 10^3 cfu/ml
survival (cfu/ml) ([2]; 60 μg/ml methicillin + MSM (% in label), 24 hours, listed as 11% MSM): 3.5 × 10^3 cfu/ml and 3.8 × 10^3 cfu/ml and 3.9 × 10^3 cfu/ml
survival (cfu/ml) ([2]; 60 μg/ml methicillin + MSM (% in label), 24 hours, listed as 12% MSM): 4.5 × 10^3 cfu/ml and 4.1 × 10^3 cfu/ml and 4.7 × 10^3 cfu/ml
survival (cfu/ml) ([2]; 60 μg/ml methicillin + MSM (% in label), 24 hours, listed as 13% MSM): 7.0 × 10^3 cfu/ml and 6.8 × 10^3 cfu/ml and 6.5 × 10^3 cfu/ml
survival (cfu/ml) ([2]; 60 μg/ml methicillin + MSM (% in label), 24 hours, listed as 14% MSM): 8.3 × 10^3 cfu/ml and 8.8 × 10^3 cfu/ml and 8.5 × 10^3 cfu/ml
survival (cfu/ml) ([2]; 60 μg/ml methicillin + MSM (% in label), 24 hours, listed as 15% MSM): 8.3 × 10^3 cfu/ml and 8.5 × 10^3 cfu/ml and 8.4 × 10^3 cfu/ml
survival (cfu/ml) ([2]; 60 μg/ml methicillin + MSM (% in label), 24 hours, listed as 16% MSM): 8.4 × 10^3 cfu/ml and 8.5 × 10^3 cfu/ml
log reduction in colony count ([2]; 60 μg/ml methicillin, 48 hours): 4.1 log
recovery after enrichment in Mueller-Hinton broth ([2]; 60 μg/ml methicillin, 72 hours, detection limit 1 cfu/ml): true total kill
colony count ([2]; 60 μg/ml methicillin, 96 hours): TNTC
recovery after enrichment in Mueller-Hinton broth ([2]; 60 μg/ml methicillin, 120 hours, detection limit 1 cfu): true total kill
growth ([2]; positive 5%, 10%, and 16% MSM controls, no antibiotic, 24 hours): signs of turbid growth, was TNTC for all dilutions plated
